{
  "source": "ChEMBL document CHEMBL1139741",
  "about": "“Synthesis of 1,2,4-trioxepanes via application of thiol-olefin co-oxygenation methodology” (Bioorg Med Chem Lett, 2006)",
  "data": [
    {"system": "Plasmodium falciparum", "assay": "Antimalarial activity against Plasmodium falciparum 3D7", "assay_type": "functional, organism-based", "units": {"IC50": "nM"}, "values": [
      {"compound": "CC1(CS(=O)(=O)c2ccc(Cl)cc2)COC(=C2C3CC4CC(C3)CC2C4)OO1", "note": "(stereo not drawn)", "IC50": 189},
      {"compound": "CC1(CS(=O)(=O)c2ccc(Cl)cc2)COC2(CCCCC2)OO1", "note": "(stereo not drawn)", "IC50": 137},
      {"compound": "CC1(CS(=O)(=O)c2ccc(Cl)cc2)COC2(CCCC2)OO1", "note": "(stereo not drawn)", "IC50": 99.8},
      {"compound": "CC1(CSc2ccc(Cl)cc2)COC2(CCCC2)OO1", "note": "(stereo not drawn)", "IC50": 110},
      {"compound": "CC1(CS(=O)(=O)c2ccc(Cl)cc2)CCOC(=C2C3CC4CC(C3)CC2C4)OO1", "note": "(stereo not drawn)", "IC50": "> 1000"},
      {"compound": "CC1(CS(=O)(=O)c2ccc(Cl)cc2)CCOC2(CCCC2)OO1", "note": "(stereo not drawn)", "IC50": "> 1000"},
      {"compound": "COC(=O)/C=C/C1(C)CCOC(=C2C3CC4CC(C3)CC2C4)OO1", "note": "(stereo not drawn)", "IC50": "> 1000"},
      {"compound": "CC1(CS(=O)(=O)c2ccc(Cl)cc2)CCOC2(CCCCC2)OO1", "note": "(stereo not drawn)", "IC50": "> 1000"}
    ]}
  ]
}
